{
  "source": "paper PMC7004151",
  "about": "“Synthesis and Structure‐Activity Relationships of N‐(4‐Benzamidino)‐Oxazolidinones: Potent and Selective Inhibitors of Kallikrein‐Related Peptidase 6” (Chemmedchem, 2019)",
  "key": {"KLK8": {"target": "T1, KLK8 (Homo sapiens, UniProt O60259)", "T1 construct": "purchased 2B scientific", "T1 sequence (O60259 33-260)": "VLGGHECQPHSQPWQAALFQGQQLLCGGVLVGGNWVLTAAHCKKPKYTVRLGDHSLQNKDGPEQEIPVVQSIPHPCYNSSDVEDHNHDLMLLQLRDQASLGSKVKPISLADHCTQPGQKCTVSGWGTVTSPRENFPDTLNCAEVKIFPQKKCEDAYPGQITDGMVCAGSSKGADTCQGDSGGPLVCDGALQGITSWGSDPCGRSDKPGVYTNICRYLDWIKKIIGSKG", "assay": "KLK8 enzyme inhibition assay", "format": "biochemical", "conditions": "read-out: KLK8 pIC50 (converted)", "description": "Enzyme inhibition assays: All chemicals were purchased from Sigma Aldrich (Gillingham, UK) unless otherwise stated. All experiments were conducted in 384 well black, low volume microplates (Greiner 784076) with a final volume of 20 μL and compounds were dispensed into assay plates using an ECHO 550 acoustic dispenser (Labcyte). KLK6 (5 nM) (prepared as in ref. 21) was incubated with test compounds for 30 min at room temperature in assay buffer (50 mM Tris, pH 7.5, 150 mM NaCl, 1 mM EDTA, 0.05 % tween 20, 0.1 % bovine serum albumin (BSA), 1 mM dithiothreitol (DTT)) before the reaction was started by addition of 20 μM Boc‐Phe‐Ser‐Arg‐AMC substrate (Bachem). Fluorescence intensity was read at ex/em 355/460 following incubation for 2 h in the dark at room temperature.\nAssays using KLK7 and KLK8 (2B scientific) were conducted in the same manner as for KLK6 with the following exceptions. Both KLK7 and KLK8 required activation before assaying. KLK7 was combined with an equal volume of 20 μg/ml thermolysin (R&D systems) in activation buffer (50 mM Tris, pH 7.5, 10 mM CaCl2, 150 mM NaCl and 0.05 % Brij‐L23) and incubated at 37 °C for 2 h, the reaction was stopped with the addition of 100 mM EDTA in stop solution (50 mM Tris, 150 mM NaCl, pH 8.5). KLK8 was combined with an equal volume of 0.4 mU/mL lysyl endopeptidase (Alpha laboratories) in activation buffer (50 mM Tris, pH 8.0) and incubated at 37 °C for 30 min. Activated KLK7 (40 nM) and KLK8 (25 nM) were assayed with 40 μM Mca‐RPKPVE‐Nval‐WRK(Dnp)‐NH2 fluorogenic MMP substrate (R&D systems) and 25 μM Boc‐V‐P‐R‐AMC substrate (R&D systems), respectively."}, "Human thrombin": {"target": "T2, Human thrombin (Homo sapiens, UniProt P00734)", "T2 construct": "Human thrombin was purchased from Biopur; purchased Biopur", "assay": "Thrombin enzyme inhibition assay", "format": "biochemical", "conditions": "read-out: Thrombin pIC50 (converted)", "description": "Human thrombin was purchased from Biopur. Human trypsin was purchased from Polymun Scientific. Human Factor Xa was purchased from Enzo Life Sciences. Thrombin (20 nM), trypsin (0.000015 %) or Factor Xa (10 nM) were assayed in a similar manner to the KLKs but were incubated with compound for 20 min at room temperature in assay buffer (50 mM Tris HCl, pH 7.6, 100 mM NaCl, 1 mg/ml CHAPS, 0.05 % bovine serum albumin (BSA), 1 mM dithiothreitol (DTT)) before the addition of 5 μM, 2.5 μM or 1.5 μM Rhodamine 110 substrate (Cambridge bioscience ltd) respectively. Fluorescence intensity was then read at ex/em 485/535 following incubation for 1 h at room temperature (thrombin and factor Xa) or 20 min (trypsin)."}, "HCT116 cells": {"tested_on": "HCT116 cells", "assay": "HCT116 Matrigel invasion assay", "format": "cell-based", "conditions": "after 24 h; 9 at multiple concentrations; 32 at 50 nM and 500 nM", "description": "Figure 5 HCT116 cells were treated with 9 or 32 at the indicated concentrations and plated on Matrigel®‐coated filters. The upper chamber contained serum‐free medium, while the lower chamber contained 10 % fetal bovine serum. After 24 h, the number of invading cells was measured optically. (A) This figure is one representative example of four biological replicates, each with similar outcomes. Error bars are SEM. Technical replicates: DMSO and 9 at 5 nM (n=3); 9 at 50 and 500 nM and 32 at all concentrations (n=6). Statistical significance was calculated using an unpaired two‐tailed t‐test. n.s=p≥0.05; **=p<0.01; ***=p<0.001. (B) Representative images (Scale bar, […]) of stained invaded cells outside of the inserts 24 h hours after treatment with 9, 32, or DMSO solvent control at the indicated concentrations. Phase contrast images were taken with EVOS FL Cell imagine system FL Auto microscope (Bio‐Rad).\nInvasion assay: The HCT116 colorectal adenocarcinoma cell line (ATCC® CCL‐247™) was maintained in Dulbecco's Modified Eagle Medium (DMEM) with […] glucose, L‐glutamine w/o sodium pyruvate, supplemented with 10 % FBS and 1 % penicillin/streptomycin. […] The samples were transferred to a new 96 well plate and read at 560 nm on a Synergy 2 Multi‐Detection Microplate Reader (Bio‐Tek Instruments, Inc., Winooski, VT)."}, "KLK6": {"target": "KLK6 (Homo sapiens, UniProt Q92876)", "assay": "KLK6 enzymatic inhibition assay (fluorogenic Boc-Phe-Ser-Arg-AMC substrate)", "format": "biochemical", "parameters": "made in house", "description": "Using our previously published KLK6 assay format,21 we performed a HTS with the European Lead Factory (ELF),22 and tested ∼350,000 substances at 10 μM for their ability to reduce KLK6‐catalyzed hydrolysis of the fluorogenic Boc‐Phe‐Ser‐Arg‐AMC peptide.\nHigh Throughput Screen: The European Lead Factory library of ∼350,000 compounds was used for high throughput screening at the Pivot Park Screening Center facilities in Oss, The Netherlands. […] For SPR, Biacore T200 was used and KLK6 was immobilized onto a CM5 chip. […] An 8 point 1 in 3 dilution series of 1 (50 μM to 0.02 μM) was also applied at the beginning and end of each screening day.\nEnzyme inhibition assays: All chemicals were purchased from Sigma Aldrich (Gillingham, UK) unless otherwise stated."}},
  "data": [
    {"smiles": "CC[C@H](NC(=O)[C@H]1CN(c2ccc(C(=N)N)cc2)C(=O)O1)c1cccc2ccccc12", "note": "[Compound 32, (5R)‐3‐(4‐carbamimidoylphenyl)‐N‐((S)‐1‐(naphthalen‐1‐yl)propyl)‐2‐oxooxazolidine‐5‐carboxamide]", "values": [
      {"measurement": "IC50", "setting": "KLK8", "result": 0.2, "unit": "µM"},
      {"measurement": "IC50", "setting": "Human thrombin", "result": "> 20", "unit": "µM"},
      {"measurement": "invasion of HCT116 cells", "setting": "HCT116 cells", "result": "significant reduction in invasion"},
      {"measurement": "gain in potency for KLK6", "setting": "KLK6; relative to 5", "result": "~100", "unit": "fold"},
      {"measurement": "IC50", "setting": "KLK6; synthesized inhibitors (Table 3), 8.6 = assay limit, read-out: KLK6 pIC50 (converted)", "result": 0.00251, "unit": "µM"}
    ]}
  ]
}
